Assays:
Renal cancer cell lines = assay: In vitro cytotoxicity, renal panel; type: cell-based; conditions: Homo sapiens, average of six to nine different cancer cell lines, 48 h, SRB, read-out: Log GI50 (concentration in mol/L causing 50% growth inhibition) (converted)
Method: (§1) In vitro evaluation of cytotoxic activity: Compounds were evaluated for in vitro anticancer activity against sixty human tumour cells derived from nine cancer types (colon, prostate, oral, lung, cervix and breast cancer) as shown in (Table 1, 2 and 3) 8b, 8c, 8d, and 8e, were evaluated for in vitro anticancer activity against sixty human tumour cells derived from nine cancer types (leukemia, non-small-cell lung, colon, CNS, melanoma, ovarian, prostate, and breast cancer) as shown in (Table 2 and 3). For the compound, dose response curves for each cell line were measured at a minimum of five concentrations at 10 fold dilutions. A protocol of 48 h continuous drug exposure was used and a sulforhodamine B (SRB) protein assay was used to estimate cell viability or growth. The concentration causing 50% cell growth inhibition (GI50), total cell growth inhibition (TGI 0% growth) and 50% cell death (LC50, −50% growth) compared with the control was calculated. The mean graph midpoint values of log10 TGI and log10 LC50 as well as log10 GI50 for 8a, 8b, 8c, 8d, and 8e, are listed in (Table 2 and 3).
(§2) Each cancer type represents the average of six to nine different cancer cell lines. The compounds 8a, 8b, 8c, 8d, 8e and 8f were evaluated for in vitro anticancer activity against sixty human tumour cells derived from nine cancer types (leukemia, colon, prostate, renal melanoma CNS, lung, cervix and breast cancer) as shown in Table 3. Compounds 8b, 8c, 8d and 8e show promising cytotoxicity against some cancer cell lines (Table 2). Compounds 8b, 8c, 8d and 8e have been evaluated for their in vitro cytotoxicity in selected human cancer cell lines of colon (Colo205), lung (Hop-62), cervix (SiHa), prostate (DU145, PC3), oral (DWD, HT1080), and breast (MCF7, Zr-75-1) origin. A protocol of 48 h continuous drug exposure has been used and an […] has been used to estimate cell viability or growth. The results are expressed as percent of cell growth determined relative to that of untreated control cells. […] In the breast cancer panel, the growth of BT-549, MCF-7 cell lines are 10.3, and 17.6. In the prostate cancer panel, the growth of DU-145, PC-3 cell lines are 11.3, and 19.2. The GI50 values of compound In the CNS cancer panel, the growth of SF-539, SNB-75 cell lines are […]. […] In vitro cytotoxicity of compounds 8a, and 8b in selected cancer cell lines has been illustrated in Table 3. The average GI50 values for each cancer panel of compounds 8b, 8c, 8d and 8e have been illustrated in above Table 2 and 3

[1] = tested on: Prostate cancer cell lines; assay: In vitro cytotoxicity, prostate panel; type: cell-based; conditions: Homo sapiens, average of six to nine different cancer cell lines, 48 h, SRB, read-out: Log GI50 (concentration in mol/L causing 50% growth inhibition) (converted)
Method: as §1, §2

[2] = tested on: DU-145 cell line (prostate cancer); assay: In vitro cytotoxicity, DU-145; type: cell-based; conditions: Homo sapiens; DU-145, prostate cancer panel; unit inferred; read-out: growth (GI50)
Method: (§3) In vitro evaluation of cytotoxic activity: Compounds were evaluated for in vitro anticancer activity against sixty human tumour cells derived from nine cancer types (colon, prostate, oral, lung, cervix and breast cancer) as shown in (Table 1, 2 and 3) 8b, 8c, 8d, and 8e, were evaluated for in vitro anticancer activity against sixty human tumour cells derived from nine cancer types (leukemia, non-small-cell lung, colon, CNS, melanoma, ovarian, prostate, and breast cancer) as shown in (Table 2 and 3). For the compound, dose response curves for each cell line were measured at a minimum of five concentrations at 10 fold dilutions. […]
(§4) Each cancer type represents the average of six to nine different cancer cell lines. The compounds 8a, 8b, 8c, 8d, 8e and 8f were evaluated for in vitro anticancer activity against sixty human tumour cells derived from nine cancer types (leukemia, colon, prostate, renal melanoma CNS, lung, cervix and breast cancer) as shown in Table 3. […] Compounds 8b, 8c, 8d and 8e have been evaluated for their in vitro cytotoxicity in selected human cancer cell lines of colon (Colo205), lung (Hop-62), cervix (SiHa), prostate (DU145, PC3), oral (DWD, HT1080), and breast (MCF7, Zr-75-1) origin. […] The results are expressed as percent of cell growth determined relative to that of untreated control cells. […]

[3] = tested on: MCF-7 cell line (breast cancer); assay: In vitro cytotoxicity, MCF-7; type: cell-based; conditions: Homo sapiens, MCF7; MCF-7, breast cancer panel; unit inferred; read-out: growth (GI50)
Method: as §3, §4

[4] = tested on: Ovarian cancer cell lines; assay: In vitro cytotoxicity, ovarian panel; type: cell-based; conditions: Homo sapiens, average of six to nine different cancer cell lines, 48 h, SRB, read-out: Log GI50 (concentration in mol/L causing 50% growth inhibition) (converted)
Method: as §1, §2

calf thymus (CT) DNA = assay: Thermal denaturation studies with duplex-form calf thymus DNA; type: binding
Method: Compounds were subjected to thermal denaturation studies with duplex-form calf thymus DNA (CT-DNA) using an adaptation of a reported procedure. Working solutions in aqueous buffer (10 mM NaH2PO4/Na2HPO4, 1 mM Na2EDTA, pH 7.00+/−0.01) containing CT-DNA (100 μM in phosphate) and the PBD (20 μM) were prepared by addition of concentrated ANCD solutions in DMSO to obtain a fixed [ANCD]/[DNA] molar ratio of 1:5. The DNA-ANCD solutions were incubated at 37° C. for 0, 18, and 36 h prior to analysis. Samples were monitored at 260 nm using a Beckman DU-7400 spectrophotometer fitted with high performance temperature controller, and heating was applied at 1° C. min^−1 in the 40-90° C. range. DNA helix coil transition temperatures (Tm) were obtained from the maxima in the (dA260)/dT derivative plots. Results are given as the mean+/−standard deviation from three determinations and are corrected for the effects of DMSO co-solvent using a linear correction term. Drug-induced alterations in DNA melting behaviour are given by: ΔTm=Tm (DNA+ANCD)−Tm (DNA alone), where the Tm value for the ANCD-free CT-DNA is 69.0+/−0.01.

[5] = tested on: EKVX cell line (non-small cell lung cancer); assay: In vitro cytotoxicity, EKVX; type: cell-based; conditions: Homo sapiens, non-small cell lung cancer panel
Method: as §3, §4

HL-60 (TB) (leukemia) = assay: In vitro cytotoxicity, HL-60 (TB); type: cell-based; conditions: Homo sapiens, leukemia panel
Method: as §3, §4

Breast cancer cell lines = assay: In vitro cytotoxicity, breast panel; type: cell-based; conditions: Homo sapiens, average of six to nine different cancer cell lines, 48 h, SRB, read-out: Log GI50 (concentration in mol/L causing 50% growth inhibition) (converted)
Method: as §1, §2

Colon cancer cell lines = assay: In vitro cytotoxicity, colon panel; type: cell-based; conditions: Homo sapiens, average of six to nine different cancer cell lines, 48 h, SRB, read-out: Log GI50 (concentration in mol/L causing 50% growth inhibition) (converted)
Method: as §1, §2

[6] = tested on: Melanoma cancer cell lines; assay: In vitro cytotoxicity, melanoma panel; type: cell-based; conditions: Homo sapiens, average of six to nine different cancer cell lines, 48 h, SRB, read-out: Log GI50 (concentration in mol/L causing 50% growth inhibition) (converted)
Method: as §1, §2

CNS cancer cell lines = assay: In vitro cytotoxicity, CNS panel; type: cell-based; conditions: Homo sapiens, average of six to nine different cancer cell lines, 48 h, SRB, read-out: Log GI50 (concentration in mol/L causing 50% growth inhibition) (converted)
Method: as §1, §2

human tumour cell lines = assay: In vitro anticancer activity against sixty human tumour cell lines (NCI, SRB assay); type: cell-based
Method: as §1, §2

[7] = tested on: Nonsmall-cell-lung cancer cell lines; assay: In vitro cytotoxicity, non-small-cell lung panel; type: cell-based; conditions: Homo sapiens, average of six to nine different cancer cell lines, 48 h, SRB, read-out: Log GI50 (concentration in mol/L causing 50% growth inhibition) (converted)
Method: as §1, §2

[8] = tested on: BT-549 cell line (breast cancer); assay: In vitro cytotoxicity, BT-549; type: cell-based; conditions: Homo sapiens; BT-549, breast cancer panel; unit inferred; read-out: growth (GI50)
Method: as §3, §4

[9] = tested on: Leukemia cancer cell lines; assay: In vitro cytotoxicity, leukemia panel; type: cell-based; conditions: Homo sapiens, average of six to nine different cancer cell lines, 48 h, SRB, read-out: Log GI50 (concentration in mol/L causing 50% growth inhibition) (converted)
Method: as §1, §2

[10] = tested on: NCI-H226 cell line (non-small cell lung cancer); assay: In vitro cytotoxicity, NCI-H226; type: cell-based; conditions: Homo sapiens; NCI-H226, non-small cell lung cancer panel
Method: as §3, §4

[11] = tested on: PC-3 cell line (prostate cancer); assay: In vitro cytotoxicity, PC-3; type: cell-based; conditions: Homo sapiens; PC-3, prostate cancer panel; unit inferred; read-out: growth (GI50)
Method: as §3, §4

COc1cc(C(=O)N2CCN(c3ccccn3)CC2)c(N)cc1OCc1ccccc1 [Compound 8b, [2-amino-4-(benzyloxy)-5-methoxyphenyl][4-(2-pyridyl)piperazino]methanone]
GI50 (Renal cancer cell lines): 5.62 µM
GI50 [1]: 16.6 µM
GI50 [2]: 11.3 µM
GI50 [3]: 17.6 µM
GI50 [4]: 5.75 µM
ΔTm (° C.) after incubation at 37° C. for 0 h (calf thymus (CT) DNA; [ANCD]/[DNA] molar ratio 1:5, CT-DNA 100 μM, ligand 20 μM, sodium phosphate buffer pH 7.00, 0 h at 37° C.): 1.5 °C
ΔTm (° C.) after incubation at 37° C. for 18 h (calf thymus (CT) DNA; [ANCD]/[DNA] molar ratio 1:5, CT-DNA 100 μM, ligand 20 μM, sodium phosphate buffer pH 7.00, 18 h at 37° C.): 2.1 °C
ΔTm (° C.) after incubation at 37° C. for 36 h (calf thymus (CT) DNA; [ANCD]/[DNA] molar ratio 1:5, CT-DNA 100 μM, ligand 20 μM, sodium phosphate buffer pH 7.00, 36 h at 37° C.): 2.6 °C
Course of ΔTm over incubation at 0 hr, 18 hr and 36 hr (calf thymus (CT) DNA; incubation at 37° C., [ANCD]/[DNA] 1:5): gradually increased
GI50 [5]: 12.4 µM
GI50 (HL-60 (TB) (leukemia)): 16.5 µM
GI50 (Breast cancer cell lines): 6.76 µM
GI50 (Colon cancer cell lines): 6.76 µM
GI50 [6]: 1.78 µM
GI50 (CNS cancer cell lines): 5.89 µM
Log10LC50 mean graph midpoint (MG_MID) (human tumour cell lines; 50% cell death, 48 h continuous drug exposure, SRB assay): −4.05
Log10GI50 mean graph midpoint (MG_MID) (human tumour cell lines; 50% cell growth inhibition, 48 h continuous drug exposure, SRB assay): −5.62
GI50 (human tumour cell lines; Homo sapiens, fifty-five cell lines in nine cancer cell panels): < 10 µM
antiproliferative activity (human tumour cell lines; against most of the tested cell lines): nanomolar to low micromolar concentrations
Log10TGI50 mean graph midpoint (MG_MID) (human tumour cell lines; total cell growth inhibition, 48 h continuous drug exposure, SRB assay): −5.12
GI50 [7]: 4.57 µM
GI50 [8]: 10.3 µM
GI50 [9]: 5.5 µM
GI50 [10]: 13.6 µM
GI50 [11]: 19.2 µM

— US8309726B2, “Substituted piperazine compounds of formula 8” (Council of Scientific & Industrial Research, priority 2007, dated 2012)
